Reference: US8304258B2, “Methods of producing monoclonal antibodies specific for human hepcidin” (DRG International, Inc., priority 2002, dated 2012)
Values belong to the compound of their own block, whether it stands above or below them.

Tests used:
[1] = target: T1, Ferroportin-GFP (Fpn-GFP) (Mus musculus, UniProt Q9JHI9); experiment: Fpn-GFP internalization in HEK293-Fpn cells, epi-fluorescence microscopy; type: cell-based
T1 construct: expressed in transfected cells; host or cells: EcR293 cells (resulting HEK293-Fpn cells), induced with ponasterone for 24 h
T1 sequence (Q9JHI9 1-570): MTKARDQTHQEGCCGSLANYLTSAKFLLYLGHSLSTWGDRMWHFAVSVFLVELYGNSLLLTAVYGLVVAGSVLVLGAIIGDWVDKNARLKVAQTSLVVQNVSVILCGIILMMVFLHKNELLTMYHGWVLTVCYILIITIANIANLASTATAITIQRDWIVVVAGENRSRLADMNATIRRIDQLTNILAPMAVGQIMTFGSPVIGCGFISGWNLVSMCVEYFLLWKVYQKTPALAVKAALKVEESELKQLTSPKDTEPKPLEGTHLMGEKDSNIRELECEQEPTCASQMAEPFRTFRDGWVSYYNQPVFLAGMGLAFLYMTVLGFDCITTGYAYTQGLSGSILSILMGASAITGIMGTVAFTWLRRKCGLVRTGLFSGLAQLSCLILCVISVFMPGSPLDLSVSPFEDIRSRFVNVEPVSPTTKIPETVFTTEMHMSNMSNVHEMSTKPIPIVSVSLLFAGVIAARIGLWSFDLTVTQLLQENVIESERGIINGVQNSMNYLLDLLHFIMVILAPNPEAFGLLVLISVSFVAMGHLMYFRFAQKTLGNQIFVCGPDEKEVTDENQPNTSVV
From the text: In one embodiment, the antibodies of the instant invention (e.g., the antibodies capable of binding SEQ ID NO:2, SEQ ID NO:3, SEQ ID NO:4, SEQ ID NO:5) may be used to inactivate hepcidin. In one embodiment, EcR293 cells were stably transfected with a plasmid containing an ecdysone-regulated Ferroportin-GFP (Fpn-GFP) construct (Nemeth et al. Science 306:2090-2093, (2004)). In resulting HEK293-Fpn cells bioactive hepcidin binds to ferroportin and specifically induces the internalization of Fpn-GFP. Briefly, Fpn-GFP was induced by ponasterone treatment for 24 h. Cells were then incubated with 0.1 to 0.5 μM purified human hepcidin (from urine) for 6 h and imaged by epi-fluorescence microscopy. […] When hepcidin was absent from the medium, there was no internalization of Fpn-GFP.
cR293 cells were stably transfected with a plasmid containing an ecdysone-regulated Ferroportin-GFP (Fpn-GFP) construct. In resulting HEK293-Fpn cells bioactive hepcidin binds to ferroportin and specifically induces the internalization of Fpn-GFP. Briefly, Fpn-GFP was induced by ponasterone treatment for 24 h. Cells were then incubated with 0.1 to 0.5 μM purified human hepcidin (from urine) for 6 h and imaged by epi-fluorescence microscopy.

[2] = system: hepcidin protein in RINm5F cells; experiment: Immunoblot analysis of hepcidin in stimulated RINm5F cells; type: cell-based, rat
Description: (§1) RINM5F cells were grown in RPMI1640 media (PAA, Austria) containing L-glutamine, supplemented with 10% (vol/vol) heat inactivated fetal calf serum, penicillin (100 units/ml) and streptomycin (100 μg/mL). Cells were cultivated at 37° C. in 5% CO2. Cells were incubated with increasing concentrations of FENTA from 1 μM up to 65 μM for 72 hours and with 100 mM glucose (Merck, Darstadt, Germany) for up to 8 hours. After stimulation experiments, total rna or proteins were extracted from RINM5F cells and analyzed by quantitative PCR and immunoblot assays.
(§2) In these experiments, protein extracts were incubated for 7 min at 94° C. in sample buffer with 4% (wt/vol) SDS (Merck, Darmstadt, Germany), 50 mM TRIS-HCl (PH 8.45), 1 mM EDTA, 3.24 mM dithiothreitol (ROTH, Karlsruhe, Germany), 12.5% (wt/vol) glycerol (Merck, Darmstadt, Germany), and 0.002% Bromophenol blue (Merck, Darmstadt, Germany). To detect hepcidin, a 16.5% Tricine-SDS-polyacrylamide gel was used.

RINm5F cells = experiment: Neutral red cytotoxicity assay in RINm5F cells; type: cell-based, rat; conditions: FeNTA concentrations used, 3 days after iron stimulation
Description: (A): Hepcidin expression in RINm5F cells after iron (FeNTA) stimulation using quantitative RT-PCR (n=5) (1 μM FeNTA: P<0.01; 3 μM: P<0.001; 10 μM: P<0.002; 65 μM: P<0.05). (B): Cytotoxicity of FeNTA in RINm5F cells measured by neutral red assay 3 days after iron stimulation. […] (C): Immunoblot analysis of iron stimulated RINm5F cells showing hepcidin immunoreactivity at the range of 10 kDa. […] The second immunoreactive band at 20 kDa may reflect a dimeric type of hepcidin.
as §2

[3] = system: hepcidin expression in RINm5F cells; experiment: Hepcidin expression in RINm5F cells by quantitative RT-PCR after stimulation; type: cell-based, rat
Description: as §1
The regulation of hepcidin expression in RINm5F cells was analyzed upon exposure to iron, since iron regulates hepcidin expression in the liver. The regulatory effect of iron on hepcidin gene expression was measured in these cells under various FENTA concentrations using quantitative RT-PCR as described, for example, in Gehrke et al., Blood 102: 371-376 (2003). A 2-step reverse transcriptase-polymerase chain reaction (RT-PCR) was performed using the Lightcycler system and relative quantification software version 1.0 (ROCHE Molecular Biochemicals; Mannheim, Germany). […] In a second step, transcripts of hepcidin were amplified in duplicates with specific sense and antisense primers. all transcripts were detected using SYBR GREEN I according to manufacturer's instructions and were normalized to β-actin as internal control.

- time to Fpn internalization ([1]; 0.1 μM hepcidin): ≤ 1 h
- concentration of hepcidin that induced Fpn internalization ([1]; HEK293-Fpn cells, within 1 h): ≤ 0.1 µM
Compound: hepcidin: purified human hepcidin (from urine), bioactive peptide hormone binding ferroportin
- distribution of Fpn-GFP after addition of hepcidin ([1]; 0.1 to 0.5 μM purified human hepcidin (from urine), 6 h): changed the distribution of Fpn-GFP from the cell surface to punctuate intracellular vesicles

Compound: O=C([O-])CN(CC(=O)[O-])CC(=O)[O-].[Fe+3] [FeNTA, Iron Nitrilotriacetate]
- hepcidin immunoreactivity at 10 kDa compared to control ([2]; 3 μM FeNTA): up-regulation of hepcidin
- hepcidin immunoreactivity at 10 kDa compared to control ([2]; 65 μM FeNTA): down-regulation
- cytotoxicity in neutral red assay (RINm5F cells): no cytotoxicity exists under the iron concentrations used
- cytotoxicity in neutral red assay (RINm5F cells; listed as FENTA): not cytotoxic
- hepcidin-mRNA regulation ([3]; FeNTA 1 μM up to 10 μM, 72 hours): significant up-regulation of hepcidin-mRNA up to three-fold
- hepcidin expression ([3]; FeNTA 65 μM or higher): down-regulated

Compound: Chemically synthesized hepcidin: hepcidin synthesized chemically
- efficiency in inducing Fpn-GFP internalization compared with hepcidin purified from urine ([1]; same experiments as with urine hepcidin): as efficient in inducing Fpn-GFP internalization as hepcidin purified from urine
